The results in this text go back to patent publication US8318769B2, “Substituted sulfonamide compounds” (Gruenethal GmbH, priority 2008, dated 2012).

The target of assay [1] is T1, human bradykinin 1 receptor (B1R) (Homo sapiens, UniProt P46663).
T1 construct: expressed in transfected cells
T1 sequence (P46663 1-353): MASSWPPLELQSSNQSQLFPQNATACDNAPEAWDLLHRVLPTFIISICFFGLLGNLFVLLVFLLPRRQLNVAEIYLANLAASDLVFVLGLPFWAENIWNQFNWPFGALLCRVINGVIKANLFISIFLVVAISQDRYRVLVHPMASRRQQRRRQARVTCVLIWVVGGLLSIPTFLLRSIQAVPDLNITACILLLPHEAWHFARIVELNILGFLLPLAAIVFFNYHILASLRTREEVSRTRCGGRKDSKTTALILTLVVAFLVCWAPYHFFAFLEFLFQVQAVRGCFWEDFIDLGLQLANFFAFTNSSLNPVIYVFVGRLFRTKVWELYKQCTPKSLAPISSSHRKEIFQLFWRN
In words: FLIPR Ca2+ assay, B1R antagonism, human. It counts as cell-based. The following applies: 10 μM test substance; CHO K1 cells with human B1R gene (hB1R cells); Lys-Des-Arg9-bradykinin at EC80; % inhibition compared with the maximum achievable inhibition; read-out: B1R antagonism, human [10 μM] % inhibition. Put shortly: (§1)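 CHO K1 cells stably expressing human or rat B1R, loaded with Fluo-4 and read in FLIPR (ex 488, em 540 nm, peak fluorescence). Test compound 10 μM preincubated 10-20 min, then EC80 agonist added (Lys-Des-Arg9-bradykinin for human, Des-Arg9-bradykinin for rat); % inhibition relative to maximum achievable inhibition.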

Assay [2] concerns the target T2, bradykinin 1 receptor (B1R) of the rat (Rattus norvegicus, UniProt P97583).
T2 construct: expressed in transfected cells
T2 sequence (P97583 1-337): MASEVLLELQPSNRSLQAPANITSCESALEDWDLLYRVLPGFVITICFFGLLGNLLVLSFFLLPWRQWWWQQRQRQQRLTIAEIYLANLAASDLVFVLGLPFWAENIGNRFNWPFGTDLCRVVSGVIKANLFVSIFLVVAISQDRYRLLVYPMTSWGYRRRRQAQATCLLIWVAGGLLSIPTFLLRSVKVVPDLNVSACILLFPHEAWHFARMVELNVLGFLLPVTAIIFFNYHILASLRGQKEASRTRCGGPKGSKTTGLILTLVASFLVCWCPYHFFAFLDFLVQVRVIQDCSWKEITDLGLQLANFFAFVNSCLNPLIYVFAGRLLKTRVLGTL
In words: FLIPR Ca2+ assay, B1R antagonism, rat. The format is cell-based. Particulars: CHO-K1, 10 μM test substance; CHO K1 cells with rat B1R gene (rB1R cells); Des-Arg9-bradykinin at EC80; % inhibition compared with the maximum achievable inhibition; read-out: B1R antagonism, rat [10 μM] % inhibition. Put shortly: as §1

The inhibition is the relative decrease from the control value, in per cent.

Turning to `COc1cc(C)c(S(=O)(=O)N2c3ccccc3CCC2COCC(=O)N2CCC(OCCN3CCCC3)(c3ccncc3)CC2)c(C)c1` (stereo not drawn) [Example 103, 2-[[1-[(4-methoxy-2,6-dimethyl-phenyl)sulfonyl]-1,2,3,4-tetrahydro-quinolin-2-yl]-methoxy]-1-[4-pyridin-4-yl-4-(2-pyrrolidin-1-yl-ethoxy)-piperidin-1-yl]-ethanone], the inhibition at 10 µM in assay [1] was determined as 100%; in assay [2], 103%.
On to `CN1CCN(CCCOC2(c3cccnc3)CCN(C(=O)CC(NS(=O)(=O)c3ccc4ccccc4c3)c3ccccc3)CC2)CC1` (stereo not drawn) [Example 39, N-(3-(4-(3-(4-methylpiperazin-1-yl)propoxy)-4-(pyridin-3-yl)piperidin-1-yl)-3-oxo-1-phenylpropyl)naphthalene-2-sulfonamide], for which the inhibition at 10 µM in assay [1] was determined as 50%; in assay [2], 98%.
For the compound `COc1cc(C)c(S(=O)(=O)N2CCCCC2COCCC(=O)N2CCC(OCCN3CCCC3)(c3cccnc3)CC2)c(C)c1` (stereo not drawn) [Example 119, 3-[[1-[(4-methoxy-2,6-dimethyl-phenyl)sulfonyl]-piperidin-2-yl]-methoxy]-1-[4-pyridin-3-yl-4-(2-pyrrolidin-1-yl-ethoxy)-piperidin-1-yl]-propan-1-one], the inhibition at 10 µM in assay [1] was determined as 100%; in assay [2], 102%.
Turning to `O=C(CC1CCCCN1S(=O)(=O)c1cccc(C(F)(F)F)c1)N1CCC(OCCN2CCCC2)(c2cccnc2)CC1` (stereo not drawn) [Example 22, 1-(4-(pyridin-3-yl)-4-(2-(pyrrolidin-1-yl)ethoxy)piperidin-1-yl)-2-(1-(3-(trifluoromethyl)phenylsulfonyl)piperidin-2-yl)ethanone], the inhibition at 10 µM in assay [1] is 39%; in assay [2], 102%.
The like results for `O=C(COCC1COc2ccccc2N1S(=O)(=O)c1ccccc1C(F)(F)F)N1CCC(OCCN2CCCC2)(c2ccncc2)CC1` (stereo not drawn) [Example 112, 1-[4-pyridin-4-yl-4-(2-pyrrolidin-1-yl-ethoxy)-piperidin-1-yl]-2-[[4-[[2-(trifluoromethyl)-phenyl]sulfonyl]-3,4-dihydro-2H-[1,4]benzoxazin-3-yl]-methoxy]-ethanone] were, in that order, 100% and 81%.
With `COc1cc(C)c(S(=O)(=O)N2CCCC[C@H]2COCC(=O)N2CCC(OCCN3CCCC3)(c3cccnc3)C2)c(C)c1` (stereo partly drawn) [Example 50, 2-(((S)-1-(4-methoxy-2,6-dimethylphenylsulfonyl)piperidin-2-yl)methoxy)-1-(3-(pyridin-3-yl)-3-(2-(pyrrolidin-1-yl)ethoxy)pyrrolidin-1-yl)ethanone], the inhibition at 10 µM in assay [1] turned out to be 100%; in assay [2], 104%.
On the same counts, the results for `O=C(COCC1CCc2ccccc2N1S(=O)(=O)c1ccc(Cl)c(Cl)c1)N1CCC(OCCN2CCCCC2)(c2cccnc2)CC1` (stereo not drawn) [Example 16, 2-((1-(3,4-dichlorophenylsulfonyl)-1,2,3,4-tetrahydroquinolin-2-yl)methoxy)-1-(4-(2-(piperidin-1-yl)ethoxy)-4-(pyridin-3-yl)piperidin-1-yl)ethanone] are 103% and 87%.
On the same counts, the results for `Cc1cccc(Cl)c1S(=O)(=O)N1c2ccccc2OCC1COCC(=O)N1CCC(OCCN2CCCC2)(c2cccc(F)c2)CC1` (stereo not drawn) [Example 109, 2-[[4-[(2-chloro-6-methyl-phenyl)sulfonyl]-3,4-dihydro-2H-[1,4]benzoxazin-3-yl]-methoxy]-1-[4-(3-fluorophenyl)-4-(2-pyrrolidin-1-yl-ethoxy)-piperidin-1-yl]-ethanone] are 91% and 99%.
On the same counts, the results for `COc1cc(C)c(S(=O)(=O)N(C)CCOCC(=O)N2CCC(OCCN3CCCC3)(c3cccnc3)CC2)c(C)c1C` [Example 113, 4-methoxy-N,2,3,6-tetramethyl-N-[2-[2-oxo-2-[4-pyridin-3-yl-4-(2-pyrrolidin-1-yl-ethoxy)-piperidin-1-yl]-ethoxy]-ethyl]-benzenesulfonic acid amide] are 100% and 103%.
